Columns and labels:
Rattus norvegicus [1] = organism: Rattus norvegicus; assay: Compound was evaluated for the drug discrimination assay and the ED50 (potency) was determined in rats; type: functional
Rattus norvegicus [2] = organism: Rattus norvegicus; assay: Compound was evaluated for the drug discrimination assay and the highest percent of LSD correct responses were determined in rats; type: functional

## CCC(C)c1cc(OC)c(CC(C)N)cc1OC.Cl (stereo not drawn)
Rattus norvegicus [1]
  ED50: 1.8 mg/kg
Rattus norvegicus [2]
  LSD: 70%

## COc1cc(CC(C)N)c(OC)cc1CC(C)C.Cl (stereo not drawn)
Rattus norvegicus [1]
  ED50: 0.536 mg/kg
Rattus norvegicus [2]
  LSD: 95%

## COc1cc(CC(C)N)c(OC)cc1C (stereo not drawn) [DOM]
Rattus norvegicus [1]
  ED50: 0.148 mg/kg
Rattus norvegicus [2]
  LSD: 99%

## CCN(CC)C(=O)[C@@H]1C=C2c3cccc4[nH]cc(c34)C[C@H]2N(C)C1 [LYSERGIDE]
Rattus norvegicus [1]
  ED50: 0.0077 mg/kg
Rattus norvegicus [2]
  LSD: 100%

Source: ChEMBL document CHEMBL1122672, “Substituent branching in phenethylamine-type hallucinogens: a comparison of 1-[2,5-dimethoxy-4-(2-butyl)phenyl]-2-aminopropane and 1-[2,5-dimethoxy-4-(2-methylpropyl)phenyl]-2-aminopropane” (1984)
